The numbers were not newly measured in US7354941B2, “Nicotinamide benzofused-heterocyclyl derivatives useful as selective inhibitors of PDE4 isozymes” (Pfizer Products Inc., priority 2000, dated 2008), which cites them from elsewhere.

Molecules are shown by their SMILES. Read-outs that look alike come from different tables or passages of the source.

Data set [1] deals with antigen-induced bronchoconstriction. The following applies: guinea-pig; cited from earlier work.
Data set [2] concerns LPS-stimulated ex vivo TNF release and PHA induced lymphocyte proliferation. The following applies: oral dose of 300 mg; cited from earlier work.
Data set [3] deals with early phase bronchoconstriction. Particulars: in vivo; cited from earlier work.
Data set [4] concerns patients with bronchial asthma. Particulars: cited from earlier work.
Data set [5] deals with high-affinity rolipram binding site (Sr). The following applies: cited from earlier work.
The next data set has as its system catalytic site (Sc). Particulars: compared with SB-207,499; cited from earlier work.
For data set [6] the following is noted: standard in vitro guinea-pig models of asthma; cited from earlier work.
A further data set relates to bronchitis. Particulars: in vivo; cited from earlier work.
Data set [7] has as its system PDE4 derived from tumor cells. Particulars: cited from earlier work.
Another data set has as its system tumor cells. Particulars: cited from earlier work.
The test system of the next data set is guinea-pig lung PDE4. The following applies: cited from earlier work.
For data set [8] the following is noted: 54 subjects, doses up to 400 mg; cited from earlier work.
The conditions of data set [9]: rat; cited from earlier work.
For data set [10] the following is noted: rat; cited from earlier work. This is another data set of the same source.
In another data set the test system is PDE4 in U937 cells. Particulars: cited from earlier work.
Data set [11] deals with antigen-induced eosinophilia. The following applies: rat; cited from earlier work.
The test system of another data set is canine tracheal PDE4. The following applies: at 100 nM; cited from earlier work.
Another data set has as its system PDE4. Particulars: cited from earlier work.
Another data set relates to TNFproduction. The following applies: read-out: IC50, TNF production; cited from earlier work.
Data set [12] has as its system collagen II induced arthritis. The following applies: cited from earlier work.
For data set [13], the system named is human peripheral blood mononuclear cells (HPBM). The following applies: normal patients and subjects with atopic dermatitis; cited from earlier work.
The test system of a further data set is PBMC. Particulars: cited from earlier work.
The test system of data set [14] is croton oil-induced ear inflammation. Particulars: mouse; cited from earlier work.
Data set [15] relates to experimental allergic encephalomyelitis. Particulars: marmoset; cited from earlier work.
For data set [16], the system named is chronic relapsing experimental allergic encephalomyelitis. Particulars: SJL mice; cited from earlier work.
The next data set relates to colitis. Particulars: rat; cited from earlier work.
Data set [17] deals with lipopolysaccharide-induced bowel erythrocyte extravasation. Particulars: cited from earlier work; for lipopolysaccharide-induced bowel erythrocyte extravasation: pretreatment i.p. 3×, rats; for lipopolysaccharide induced erythrocyte extravasation in rats and intestinal hypoperfusion in dogs: rat, in vivo.
Data set [18] deals with T-cell mediated hepatic failure. Particulars: cited from earlier work.
The subject of data set [19] is isolated pulmonary artery rings. Particulars: rings from normal rats and rats with hypoxia-induced pulmonary hypertension; cited from earlier work.
For data set [20], the system named is lipopolysaccharide-induced mesenteric blood flow fall. Particulars: dog, in vivo; cited from earlier work.
The subject of a further data set is bone loss. Particulars: serial oral administrations; cited from earlier work.
Another data set relates to bone marrow culture. Particulars: cited from earlier work.

Regarding `CCNc1ncn(Cc2ccc(OC)c(OC3CCCC3)c2)c2nc(C(C)C)nc1-2` [Example V-11294A], in [1], the “inhibition of antigen-induced bronchoconstriction” value is on record as “active”. Moreover, the “TNF levels and lymphocyte proliferation” value in data set [2] is “effective in reducing TNF levels and lymphocyte proliferation”.
On to `CCOc1cc2cc(CO)c(CO)c(-c3ccn(CCOC)c(=O)c3)c2cc1OCC` [Example T-440], for which the “inhibition of early and late phase bronchoconstriction, BAL eosinophilia, ozone-induced AHR and airway epithelial injury” value in [3] is reported as “activity”.
As for `COc1ccc([C@H](Cc2ccncc2)c2ccccc2)cc1OC1CCCC1` [CDP840], the “late reactions to inhaled allergen” value in data set [4] (9.5 days oral, 15 and 30 mg) is recorded as “suppression of late reactions to inhaled allergen”. In [4] (human, in vivo), the “adverse events of nausea or headache” value is listed as “without any adverse events of nausea or headache” and the “late-phase response in the treatment of asthma” value was “significant inhibition of late-phase response”. For the same molecule, the “affinity at the Sr” value in data set [5] is listed as “comparatively low affinity at the Sr”. In the data set on catalytic site (Sc), the “potency at the Sc” value was “significantly higher potency at the Sc than does SB-207,499”.
Turning to `O=C(Nc1c(Cl)cncc1Cl)c1ccc(OC(F)F)c(OCC2CC2)c1` [Roflumilast], the IC50 in [6] is 3.5 nM.
As for `Cc1c[n+]([O-])ccc1CC(c1ccc(C(O)(C(F)(F)F)C(F)(F)F)cc1)c1ccc(OC(F)F)c(OC(F)F)c1` [L-826,141], the “activity in a rat model of bronchitis” value in the data set with bronchitis is given as “activity”.
As for `Clc1nc2c(N3CCCC3)nc(N3CCNCC3)nc2nc1NCc1ccccc1` [(0.0.55)], in [7], the IC50 is 16 nM. For the same molecule, in the data set on tumor cells, the “growth of tumor cells” value is listed as “inhibit the growth of tumor cells at micromolar concentrations”.
Regarding `CCOc1cc2cc(CO)c(CO)c(-c3ccnc(-n4nc(-c5cccnc5)c5ccccc5c4=O)c3)c2cc1OCC` [Example T-2585], the IC50 in the data set with guinea-pig lung PDE4 was 0.13 nM.
As to `Cc1cc2c3c(c1)C(c1ccccc1)=N[C@@H](NC(=O)c1ccncc1)C(=O)N3CC2` [CI-1018], the adverse events result in data set [8] is on record as “no adverse events were reported”. Moreover, the oral bioavailability in [9] is 57%. In addition, in data set [10], the “ED50, oral potency” value is recorded as 5 mg/kg. The IC50 in the data set with PDE4 in U937 cells is 1100 nM. For the same molecule, in [11], the “inhibition of antigen-induced eosinophilia” value was “active”.
In the case of `COc1ccc(C(=O)Cc2c(Cl)c[n+]([O-])cc2Cl)c2c1OCCCCO2` [(0.0.49)], the “inhibition of canine tracheal PDE4” value with canine tracheal PDE4 is “almost complete inhibition”.
Take `COc1ccc(C(CC(N)=O)N2C(=O)c3ccccc3C2=O)cc1OC1CCCC1` (centres unmarked) [(0.0.32)]: the half-inhibitory concentration (IC50) with PDE4 was 0.042 nM; in the data set with TNFproduction it was 130 nM.
Regarding `COc1ccc(C2CNC(=O)C2)cc1OC1CCCC1` (centres unmarked) [rolipram], the “appearance of arthritic symptoms” value in data set [12] (2 mg/kg twice daily for five days before the onset of arthritis) is “significantly delayed the appearance of arthritic symptoms”. For the same molecule, the “development of the disease, arthritis severity” value in data set [12] (3 mg/kg twice daily when arthritis was apparent) is on record as “progression of severity was halted”. In addition, the “TNF-α and IFN mRNA expression in regional lymph nodes” value in data set [12] (rat, in vivo) is “strong down-regulation of TNF-α and IFN7 mRNA expression”. Also, in data set [13], the “inhibition of the proliferation of HPBM” value is listed as “concentration-related inhibition”. Further, in the data set with PBMC (PHA stimulated atopic dermatitis PBMC proliferation), the IC50 is 280 nM. Further, in the data set on PBMC (PHA stimulated normal PBMC proliferation), the IC50 was 2600 nM. Moreover, in data set [14], the “topical doses inhibiting croton oil-induced ear inflammation (as low as)” value is 0.03 mg per ear. The “clinical signs and MRI abnormalities” value in [15] is “suppress the appearance of clinical signs and abolish abnormalities in MRI imaging”. Besides, the “clinical signs and pathological changes” value in data set [16] is “ameliorates clinical signs and pathological changes”. Besides, the “effects in dextran sulfate induced colitis model” value in the data set with colitis was “beneficial effects comparable to prednisolone”. Also, in data set [17], the “lipopolysaccharide-induced bowel erythrocyte extravasation” value was “reduces lipopolysaccharide-induced bowel erythrocyte extravasation”; the “lipopolysaccharide induced erythrocyte extravasation in rats and intestinal hypoperfusion in dogs” value is given as “attenuated”. Moreover, the “plasma TNF-α and INF-γ concentrations” value in [18] (0.1 to 10 mg/kg i.p. 30 minutes before challenge) is “significantly reduce plasma TNF-α and INF-γ concentrations”. In data set [18] (0.1 to 10 mg/kg i.p.), the IL-10 levels result was “significantly elevates IL-10 levels”; the “plasma activities of ALT, AST, and SDH” value is given as “dose-dependently inhibited”. Also, the “concanavalin A-induced IL4 release” value in data set [18] (mouse, in vivo) is listed as “suppress concanavalin A-induced IL4 release”. In data set [19], the “relaxant activities of isoproterenol and forskolin” value is “potentiates the relaxant activities of isoproterenol and forskolin”.
Regarding `CCCCn1c(=O)c2c(ncn2CC(C)=O)n(CCCC)c1=O` [denbufylline], the “inhibition of the proliferation of HPBM” value in data set [13] is “concentration-related inhibition”. In data set [17], the “lipopolysaccharide-induced bowel erythrocyte extravasation” value is given as “reduces lipopolysaccharide-induced bowel erythrocyte extravasation”; the “lipopolysaccharide induced erythrocyte extravasation in rats and intestinal hypoperfusion in dogs” value is “attenuated”. In addition, the “potency relative to pentoxifylline in inhibiting mesenteric blood flow fall” value in [20] was 100 fold. Further, the “bone mineral density of femurs” value with bone loss is “inhibit the decrease in the bone mineral density of femurs”. Also, the “mineralized nodules and osteoclast-like cells” value in the data set on bone marrow culture is “increase in the number of mineralized nodules and a decrease in the number of osteoclast-like cells”.
